“And” between values parts separate entries of the source, which are not always exact repeats. Equal entries are not always repeated. Numbers after ± are expanded uncertainties.
Conditions: Liquid, Vibrating tube method

CCCCC(=O)OCC(COC(=O)CCCC)(COC(=O)CCCC)COC(=O)CCCC [pentaerythritol tetrapentanoate]
Conditions	mass density
343.14 K, 22204 kPa	994.9 ± 1.2 kg/m3
343.14 K, 22235 kPa	994.9 ± 1.2 kg/m3
343.14 K, 22267 kPa	995 ± 1.2 kg/m3
343.14 K, 22298 kPa	995 ± 1.2 kg/m3
343.14 K, 22334 kPa	995 ± 1.2 kg/m3
343.14 K, 22365 kPa	994.9 ± 1.2 kg/m3
343.14 K, 22395 kPa	994.9 ± 1.2 kg/m3
343.14 K, 22432 kPa	994.9 ± 1.2 kg/m3
343.14 K, 22462 kPa	995.1 ± 1.2 kg/m3
343.14 K, 22494 kPa	995 ± 1.2 kg/m3
343.14 K, 22562 kPa	995.1 ± 1.2 kg/m3
343.14 K, 22594 kPa	995 ± 1.2 kg/m3
343.14 K, 22728 kPa	995.2 ± 1.2 kg/m3
343.14 K, 22766 kPa	995.2 ± 1.2 kg/m3
343.14 K, 22798 kPa	995.3 ± 1.2 kg/m3
343.14 K, 22830 kPa	995.3 ± 1.2 kg/m3
343.14 K, 22868 kPa	995.3 ± 1.2 kg/m3
343.14 K, 22901 kPa	995.4 ± 1.2 kg/m3
343.14 K, 22933 kPa	995.4 ± 1.2 kg/m3
343.14 K, 22971 kPa	995.4 ± 1.2 kg/m3
343.14 K, 23004 kPa	995.4 ± 1.2 kg/m3
343.14 K, 23038 kPa	995.4 ± 1.2 kg/m3
343.14 K, 23077 kPa	995.5 ± 1.2 kg/m3
343.14 K, 23110 kPa	995.5 ± 1.2 kg/m3
343.14 K, 23144 kPa	995.4 ± 1.2 kg/m3
343.14 K, 23177 kPa	995.5 ± 1.2 kg/m3
343.14 K, 23217 kPa	995.5 ± 1.2 kg/m3
343.14 K, 23284 kPa	995.6 ± 1.2 kg/m3
343.14 K, 23357 kPa	995.6 ± 1.2 kg/m3
343.14 K, 23391 kPa	995.5 ± 1.2 kg/m3
343.14 K, 23432 kPa	995.8 ± 1.2 kg/m3
343.14 K, 23500 kPa	995.8 ± 1.2 kg/m3
343.14 K, 23535 kPa	995.9 ± 1.2 kg/m3
343.14 K, 23577 kPa	995.7 ± 1.2 kg/m3
343.14 K, 23612 kPa	995.8 ± 1.2 kg/m3
343.14 K, 23646 kPa	995.8 ± 1.2 kg/m3
343.14 K, 23687 kPa	995.8 ± 1.2 kg/m3
343.14 K, 23722 kPa	995.9 ± 1.2 kg/m3
343.14 K, 23757 kPa	995.9 ± 1.2 kg/m3
343.14 K, 23799 kPa	995.9 ± 1.2 kg/m3
343.14 K, 23834 kPa	996 ± 1.2 kg/m3
343.14 K, 23870 kPa	996 ± 1.2 kg/m3
343.14 K, 23913 kPa	996.1 ± 1.2 kg/m3
343.14 K, 23949 kPa	996.2 ± 1.2 kg/m3
343.14 K, 24100 kPa	996 ± 1.2 kg/m3
343.14 K, 24817 kPa	996.7 ± 1.2 kg/m3
343.14 K, 25020 kPa	996.6 ± 1.2 kg/m3
343.14 K, 25061 kPa	996.8 ± 1.2 kg/m3
343.14 K, 25102 kPa	996.8 ± 1.2 kg/m3
343.14 K, 25142 kPa	996.7 ± 1.2 kg/m3
343.14 K, 25188 kPa	996.9 ± 1.2 kg/m3
343.14 K, 25228 kPa	996.9 ± 1.2 kg/m3
343.14 K, 25406 kPa	996.9 ± 1.2 kg/m3
343.14 K, 25451 kPa	997.1 ± 1.2 kg/m3
343.14 K, 25495 kPa	997 ± 1.2 kg/m3
343.14 K, 25549 kPa	997 ± 1.2 kg/m3
343.14 K, 25596 kPa	997.1 ± 1.2 kg/m3
343.14 K, 25644 kPa	997.2 ± 1.2 kg/m3
343.14 K, 25691 kPa	997.1 ± 1.2 kg/m3
343.14 K, 25745 kPa	997.1 ± 1.2 kg/m3
343.14 K, 25792 kPa	997.2 ± 1.2 kg/m3
343.14 K, 25943 kPa	997.2 ± 1.2 kg/m3
343.14 K, 25992 kPa	997.3 ± 1.2 kg/m3
343.14 K, 26041 kPa	997.5 ± 1.2 kg/m3
343.14 K, 26099 kPa	997.5 ± 1.2 kg/m3
343.14 K, 26149 kPa	997.5 ± 1.2 kg/m3
343.14 K, 30161 kPa	1000.1 ± 1.2 kg/m3
343.14 K, 32316 kPa	1001.3 ± 1.2 kg/m3
343.14 K, 32354 kPa	1001.4 ± 1.2 kg/m3
343.14 K, 32399 kPa	1001.4 ± 1.2 kg/m3
343.14 K, 32523 kPa	1001.6 ± 1.2 kg/m3
343.15 K, 106.2 kPa	978.6 ± 1.2 kg/m3
343.15 K, 106.4 kPa	978.5 ± 1.2 kg/m3 and 978.6 ± 1.2 kg/m3
343.15 K, 106.6 kPa	978.5 ± 1.2 kg/m3
343.15 K, 106.7 kPa	978.6 ± 1.2 kg/m3
343.15 K, 106.8 kPa	978.6 ± 1.2 kg/m3
343.15 K, 106.9 kPa	978.6 ± 1.2 kg/m3
343.15 K, 107.4 kPa	978.6 ± 1.2 kg/m3
343.15 K, 109.5 kPa	978.6 ± 1.2 kg/m3
343.15 K, 114.4 kPa	978.4 ± 1.2 kg/m3
343.15 K, 120 kPa	978.7 ± 1.2 kg/m3
343.15 K, 122.2 kPa	978.7 ± 1.2 kg/m3
343.15 K, 125.2 kPa	978.7 ± 1.2 kg/m3
343.15 K, 129.2 kPa	978.7 ± 1.2 kg/m3
343.15 K, 133.3 kPa	978.6 ± 1.2 kg/m3
343.15 K, 138.9 kPa	978.6 ± 1.2 kg/m3
343.15 K, 146.6 kPa	978.5 ± 1.2 kg/m3
343.15 K, 154.5 kPa	978.6 ± 1.2 kg/m3
343.15 K, 164.6 kPa	978.5 ± 1.2 kg/m3
343.15 K, 180.1 kPa	978.6 ± 1.2 kg/m3
343.15 K, 197 kPa	978.6 ± 1.2 kg/m3
343.15 K, 217.8 kPa	978.7 ± 1.2 kg/m3
343.15 K, 250.8 kPa	978.7 ± 1.2 kg/m3
343.15 K, 286.7 kPa	978.8 ± 1.2 kg/m3
343.15 K, 330.1 kPa	978.8 ± 1.2 kg/m3
343.15 K, 380.3 kPa	978.7 ± 1.2 kg/m3
343.15 K, 749.2 kPa	979 ± 1.2 kg/m3
343.15 K, 1709.2 kPa	979.9 ± 1.2 kg/m3
343.15 K, 1788.2 kPa	980 ± 1.2 kg/m3
343.15 K, 1843.4 kPa	979.8 ± 1.2 kg/m3
343.15 K, 1867.5 kPa	979.9 ± 1.2 kg/m3
343.15 K, 1894.4 kPa	980 ± 1.2 kg/m3
343.15 K, 1917.3 kPa	979.9 ± 1.2 kg/m3
343.15 K, 1941.1 kPa	980 ± 1.2 kg/m3
343.15 K, 1965.4 kPa	980.1 ± 1.2 kg/m3
343.15 K, 1994.4 kPa	979.9 ± 1.2 kg/m3
343.15 K, 2019 kPa	980.2 ± 1.2 kg/m3
343.15 K, 2044.9 kPa	980.2 ± 1.2 kg/m3
343.15 K, 2075.6 kPa	980 ± 1.2 kg/m3
343.15 K, 2102.6 kPa	980 ± 1.2 kg/m3
343.15 K, 2129.9 kPa	980.2 ± 1.2 kg/m3
343.15 K, 2163.5 kPa	980.2 ± 1.2 kg/m3
343.15 K, 2193.4 kPa	980.1 ± 1.2 kg/m3
343.15 K, 2252.9 kPa	980.3 ± 1.2 kg/m3
343.15 K, 2352.8 kPa	980.3 ± 1.2 kg/m3
343.15 K, 2494.2 kPa	980.5 ± 1.2 kg/m3
343.15 K, 2573.8 kPa	980.5 ± 1.2 kg/m3
343.15 K, 2651 kPa	980.7 ± 1.2 kg/m3
343.15 K, 2698.2 kPa	980.6 ± 1.2 kg/m3
343.15 K, 2738.4 kPa	980.4 ± 1.2 kg/m3
343.15 K, 2779.7 kPa	980.7 ± 1.2 kg/m3
343.15 K, 2830.5 kPa	980.7 ± 1.2 kg/m3
343.15 K, 2972.7 kPa	980.9 ± 1.2 kg/m3
343.15 K, 3068.2 kPa	981 ± 1.2 kg/m3
343.15 K, 3117.1 kPa	980.9 ± 1.2 kg/m3
343.15 K, 3897.8 kPa	981.5 ± 1.2 kg/m3
343.15 K, 3924.9 kPa	981.5 ± 1.2 kg/m3
343.15 K, 3952.8 kPa	981.6 ± 1.2 kg/m3
343.15 K, 3986.3 kPa	981.7 ± 1.2 kg/m3
343.15 K, 4014.7 kPa	981.6 ± 1.2 kg/m3
343.15 K, 4043.6 kPa	981.7 ± 1.2 kg/m3
343.15 K, 4073 kPa	981.8 ± 1.2 kg/m3
343.15 K, 4107.7 kPa	981.6 ± 1.2 kg/m3
343.15 K, 4137.6 kPa	981.7 ± 1.2 kg/m3
343.15 K, 4168.8 kPa	981.8 ± 1.2 kg/m3
343.15 K, 4199.3 kPa	981.8 ± 1.2 kg/m3
343.15 K, 4230.1 kPa	981.9 ± 1.2 kg/m3
343.15 K, 4267.5 kPa	981.9 ± 1.2 kg/m3
343.15 K, 4299.4 kPa	981.8 ± 1.2 kg/m3
343.15 K, 4597.4 kPa	982 ± 1.2 kg/m3
343.15 K, 4629.6 kPa	982.1 ± 1.2 kg/m3
343.15 K, 4643.1 kPa	982 ± 1.2 kg/m3
343.15 K, 4660.4 kPa	982.2 ± 1.2 kg/m3
343.15 K, 4661.1 kPa	982.1 ± 1.2 kg/m3
343.15 K, 4661.7 kPa	982.1 ± 1.2 kg/m3
343.15 K, 4662.3 kPa	982.1 ± 1.2 kg/m3
343.15 K, 4662.6 kPa	982 ± 1.2 kg/m3
343.15 K, 4663.1 kPa	982.2 ± 1.2 kg/m3
343.15 K, 4754 kPa	982 ± 1.2 kg/m3
343.15 K, 4934.5 kPa	982.4 ± 1.2 kg/m3
343.15 K, 4956.5 kPa	982.3 ± 1.2 kg/m3
343.15 K, 4979.2 kPa	982.3 ± 1.2 kg/m3
343.15 K, 5005.6 kPa	982.4 ± 1.2 kg/m3
343.15 K, 5027.6 kPa	982.5 ± 1.2 kg/m3
343.15 K, 5050.1 kPa	982.4 ± 1.2 kg/m3
343.15 K, 5076.2 kPa	982.3 ± 1.2 kg/m3
343.15 K, 5120.9 kPa	982.4 ± 1.2 kg/m3
343.15 K, 5279.4 kPa	982.6 ± 1.2 kg/m3
343.15 K, 5366.4 kPa	982.7 ± 1.2 kg/m3
343.15 K, 5392 kPa	982.8 ± 1.2 kg/m3

— the NIST ThermoML archive (doi:10.1021/je060271a)
